{
  "source": "patent EP2730586B1",
  "about": "“PROTEIN-P[…] OBTAINED FROM TISSUES OF HOOFED LIVESTOCK EMBRYOS, PROCESS FOR PREPARING SAME AND PHARMACEUTICAL COMPOSITION” (Aktsionernoe Obschestvo \"Pharm-Sintez\", priority 2011, dated 2012)",
  "test_system": "mice marrow cells",
  "procedure": "The study objective was detection and quantitative estimate of cytogenetic (mutagenic) activity of pharmacologic substances in polychromatophil cells (PCC) of mammal marrow. The method is based on microscopic recording of cells with micronuclei.\nThe experiments were performed to 2 months old male and female F1 (CBAx C57BI6/J) cross-breed mice weighing 18-20 g. Each group included 6 animals. The animals were kept at 12 hours light pattern with free food and water access. […] Three sessions of experiments were carried out with corresponding controls: therapeutic dose was tested on male animals with a single introduction; subtoxic dose was tested on male animals with a single introduction; therapeutic dose was tested on male animals with a single introduction; subtoxic dose was tested on male animals and female with five-time introduction.\nSeven animal groups were formed: four experimental groups and three corresponding reference groups. The substance in the amount of 0.1 mg/kg was introduced five times at 24 hours interval to males and females. All animals were sacrificed 6 hours upon the last introduction of the protein/polypeptide complex.\nIn two other experimental groups, the protein/polypeptide complex was introduced in single dosing to males in doses of 0.2 mg/kg and 0.5 mg/kg.\nNormal saline solvent was used as a negative control. It was introduced intraperitoneally to male and female mice of two reference groups for the same period and in the same amount as to the experimental animals.\nMarrow cell preparations for micronuclei count were made by a standard method in compliance with guidelines [formula] […] The animals were sacrificed through cervical dislocation 6 hours after the last introduction. Both thigh bones were detached and muscles were removed from them. In order to wash out the marrow, fetal calf serum was used (produced by NPP PanEko). The marrow from both thigh bones was washed out into a microtube using a syringe. […] 2,000 polychromatophil cells from each animal were analyzed in encoded preparations.",
  "data": [
    {"smiles": "O=P1(N(CCCl)CCCl)NCCCO1", "note": "(stereo not drawn) [Cyclophosphamide, cyclophosphamide]", "values": [
      {"measurement": "polychromatophilic to normochromatic erythrocytes ratio", "setting": "20 mg/kg, compared to control P<0.005", "result": "shift to the latter"},
      {"measurement": "increased frequency of micronucleus cells", "setting": "male mice, 20 mg/kg intraperitoneally, versus reference, P<0.001", "result": 19.6, "unit": "times"},
      {"measurement": "frequency of micronucleus cells", "setting": "male mice, 20 mg/kg intraperitoneally, 3.16 % in reference", "result": 62.1, "unit": "%"}
    ]}
  ]
}
